Results as given in article PMC11519910, “Semisynthetic Ecdysteroid Cinnamate Esters and tert-Butyl Oxime Ether Derivatives with Trypanocidal Activity” (Journal of Natural Products, 2024).
Like-named read-outs stand apart in the source and are kept apart here.

Experiments:
T. cruzi = tested on: T. cruzi; parameters: method as in PMID 30517542; details: free acid forms; read-out: IC50, antitrypanosomal activity; cited from earlier work
T. cruzi epimastigotes = assay: Trypanocidal activity against epimastigotes (XTT); type: cell-based, Trypanosoma cruzi; details: for inhibition at 5 µM: read-out: inhibition of epimastigote proliferation; for IC50: 72 h incubation, read-out: IC50, epimastigote proliferation
Procedure: Trypanocidal activity against epimastigotes was assessed by XTT (2,3-bis(2-methoxy-4-nitro-5-sulfophenyl)-2H-tetrazolium-5-carboxanilide). Briefly, 1.5 × 10^6 epimastigotes were seeded per well in 96-well plates. The ecdysteroid was added at 8 concentrations ranging from 25 to 0.2 μM for 72 h at 28 °C. […] Following the incubation period, the plates were examined under the microscope for sterility and growth of controls. To the plates, 50 μL of XTT and PMS (phenazine methosulfate, Sigma-Aldrich, MO, USA) solution (XTT and PMS at 0.5 and 0.025 mg/mL, respectively) was added, and the plates were then incubated at 28 °C for 3 h. The parasites were fixed by the addition of 50 μL of MeOH for 15 min before the absorbance was measured at 490 nm on a Tecan plate reader. Results were expressed as percentage cell viability relative to the vehicle control or IC50 values calculated by GraphPad Prism version 8.0. All assessments were performed in triplicates in three independent experiments.

[1] = tested on: T. cruzi (GFPY parasite release in trypomastigote-infected RAW264.7 cells); assay: FACS-based quantitation of released parasites from infected RAW264.7 cells; type: cell-based, Trypanosoma cruzi
Procedure: The host RAW264.7 cells were seeded in 24-well plates at a density of 20,000 cells/mL. The cells were allowed to adhere for 24 h and infected with trypomastigotes at a multiplicity of 10. On the next day, noninternalized trypomastigotes were washed away, and fresh RPMI with 2% hiFBS was added to the wells along with the C44 at various concentrations. […] Three independent experiments in triplicates were performed to determine the activity of the ecdysteroid.

RAW264.7 cells = assay: cells; type: cell-based
Procedure: Cytotoxicity or antiproliferative effects of ecdysteroid against mammalian cells was assessed using MTT (3-(4,5-dimethylthiazol-2-yl)-2,5-diphenyltetrazolium bromide). CHO or RAW264.7 cells were used for screening the compounds. Briefly, the cells were seeded at a density of 2000/well in 96-well plates. After 24 h of incubation at 37 °C and 5% CO2, ecdysteroid ([…]) was added to the cells at various concentrations. In all the experiments, podophyllotoxin was used as the positive control. In all experiments, vehicle controls were included, and the final DMSO concentration was below 0.5%. After 72 h, the plates were examined under an inverted microscope for sterility and growth of controls after the incubation period. The spent medium was removed, and 100 μL of fresh medium containing 0.5 mg/mL of the final concentration of MTT was added to the cells. The plates were incubated for 4 h at 37 °C in 5% CO2. The formazan crystals were solubilized by adding 200 μL of DMSO and mixed thoroughly. The absorbance was determined at 550 nm by using a Tecan plate reader. The values were corrected to the blank medium and vehicle control (DMSO only). Results were expressed as percentage cell viability relative to the vehicle control. Each assay was performed in technical triplicate in three independent experiments.

[2] = tested on: T. cruzi amastigotes in CCL39 fibroblasts; assay: Fluorescence microscopy of amastigote replication in infected CCL39 fibroblasts; type: cell-based, Trypanosoma cruzi; details: 5 μM, of infection
Procedure: The host CCL39 cells were seeded in 24-well plates at a density of 20,000 cells/mL. The cells were allowed to adhere for 24 h and infected with trypomastigotes at a multiplicity of 10. On the next day, non-internalized trypomastigotes were washed away, and fresh RPMI with 2% hiFBS was added to the wells along with the test substance. […] The images were analyzed on ImageJ.

| SMILES | IC50 (T. cruzi) | inhibition at 5 µM (T. cruzi epimastigotes; Trypanosoma cruzi, 72 h) | also measured |
| --- | --- | --- | --- |
| COc1cc(C=CC(=O)O)cc(OC)c1OC [3,4,5-trimethoxycinnamic acid] | > 600 µM | – | – |
| COc1ccc(C=CC(=O)O)cc1 [4-methoxycinnamic acid (p-coumaric acid), 4-methoxycinnamic acid] | > 600 µM | – | – |
| CC(C)(O)CC[C@H]1OC(C)(C)O[C@]1(C)[C@H]1CC[C@@]2(O)C3=C/C(=N\OC(C)(C)C)[C@@H]4C[C@H]5OC(C)(C)O[C@H]5C[C@]4(C)[C@H]3CC[C@]12C [Compound 24] | – | ≥ 30% | – |
| CC(C)(O)CC[C@H]1OC(C)(C)O[C@]1(C)[C@H]1CC=C2C3=C/C(=N/OC(C)(C)C)[C@@H]4C[C@H]5OC(C)(C)O[C@H]5C[C@]4(C)[C@H]3CC[C@@]21C [Compound 28] | – | ≥ 30% | – |
| CC(C)(O)CC[C@@H](OC(=O)/C=C/c1ccccc1)[C@](C)(O)[C@H]1CC[C@@]2(O)C3=CC(=O)[C@@H]4C[C@@H](OC(=O)/C=C/c5ccccc5)[C@@H](O)C[C@]4(C)[C@H]3CC[C@]12C [Compound 39] | – | ≥ 30% | – |
| CC(C)(O)CC[C@@H](OC(=O)/C=C/c1ccccc1)[C@](C)(O)[C@H]1CC[C@@]2(O)C3=CC(=O)[C@@H]4C[C@@H](O)[C@@H](OC(=O)/C=C/c5ccccc5)C[C@]4(C)[C@H]3CC[C@]12C [Compound 40] | – | ≥ 30% | – |
| CC(C)(O)CC[C@@H](O)[C@](C)(O)[C@H]1CC=C2C3=C/C(=N\OC(C)(C)C)[C@@H]4C[C@@H](O)[C@@H](O)C[C@]4(C)[C@H]3CC[C@@]21C [Compound 42] | – | < 30% | – |
| CC(C)(O)CC[C@@H](O)[C@](C)(O)[C@H]1CC=C2C3=C/C(=N/OC(C)(C)C)[C@@H]4C[C@@H](O)[C@@H](O)C[C@]4(C)[C@H]3CC[C@@]21C [Compound 43] | – | < 30% | – |
| CC(C)(O)CC[C@@H](O)[C@](C)(O)[C@H]1CC=C2C3=C/C(=N\OC(C)(C)C)[C@@H]4C[C@@H](O)[C@@H](OC(=O)/C=C/c5ccccc5)C[C@]4(C)[C@H]3CC[C@@]21C [Compound 44] | – | – | IC50 ([1]; Trypanosoma cruzi, 144 h, trypomastigote-infected RAW264.7 cells, FACS after 6 days): 2.7 ± 0.1 µM; inhibition of trypomastigote release ([1]; infected RAW264.7 cells): more than 95%; cytotoxicity on the host cells (RAW264.7 cells): moderate cytotoxicity; IC50 (RAW264.7 cells; Mus musculus, RAW264.7, MTT, 72 h of incubation, read-out: IC50, cell proliferation in RAW264.7 cells): 11.6 ± 1.6 µM; selectivity, T. cruzi over RAW264.7 host macrophages (RAW264.7 cells; apparent selectivity, cytotoxicity toward T. cruzi vs host cells): more than 5 fold; IC50 (T. cruzi epimastigotes): 1.7 ± 0.2 µM; IC50 (T. cruzi epimastigotes; Trypanosoma cruzi, 72 h): < 2 µM; inhibition of amastigote replication [2]: efficiently inhibits amastigote replication |
| COc1ccc(/C=C/C(=O)O)c(OC)c1 [trans-2,4-dimethoxycinnamic acid] | > 600 µM | – | – |
